# Earlier results in paper PMC3103655 (Journal of natural products, 2011).
# pIC50: −log10 of the molar value.
# Legend:
# [1] = test system: MCF7 breast cancer cells; details: read-out: IC50, MCF7 breast cancer cells
# [2] = test system: MOLT-4 leukemia cells; details: read-out: IC50, MOLT-4 leukemia cells
# [3] = test system: cancer cells
# [4] = test system: LoVo cells; details: 10 μg/mL
# [5] = test system: KB cells; details: 10 μg/mL
substance,measurement,setting,value
hantupeptin A,pIC50,[1],5.40
same,pIC50,[2],7.49
symplostatin 1,IC50 values against cancer cells,[3],pico- to nanomolar
trungapeptin A,"cytotoxicity, LoVo cells",[4],did not display cytotoxicity
same,"cytotoxicity, KB cells",[5],did not display cytotoxicity
dolastatin 10,IC50 values against cancer cells,[3],pico- to nanomolar
